In series [1] the test system is RM1 tumor (murine prostate cancer cell line). Briefly: RM1 tumor growth in C57Bl/6 mice. Format: in vivo, mouse. The note with it: for tumor volume: untreated tumor 1879±98.65 mm^3. The protocol:
(§1) This protocol yielded an approximate in situ spatial-peak temporal-average acoustic intensity of 270 W/cm^2, resulting in estimated average intra-tumoral temperature elevation of 3.2° C. Post-treatment, there were no signs of normal tissue toxicity such as alopecia, thermal damage, or skin wounds. […] Control mice were injected with equal volume of the vehicle DMSO, which was used to solubilize 17AAG.
(§2) C57Bl/6 and BalbC nu/nu mice were injected subcutaneously with 1×10^5 RM-1 (murine prostate cancer cell line) and 1×10^6 PC3 (human prostate cancer cell line) cells on the flank, respectively. Approximately 10 days later, the tumor became palpable (3-5 mm in diameter), whereupon LOFU treatment was initiated. […] Palpable tumors were treated with LOFU every 3-4 days for five fractions administered over two weeks. Animals received 17AAG three times a week during this time. Tumor volume measurements were performed twice weekly using Vernier calipers along with simultaneous physical assessment of signs of systemic toxicity (malaise and diarrhea).

The nature of series [2]: Toxicity / survival of 17AAG dosing in mice (Kaplan Meier, signs of toxicity). Format: in vivo. As to the method: as §1
Thus, these dose levels were selected for the current study. The goal was to combine two therapies that are nontoxic, albeit subtherapeutic, and examine whether the combination can be therapeutic. […] To detect the level of ER stress, the expression levels of ER chaperones, ERp44, ERp57, and ERp72 were quantitated among different treatment groups. ERp44 is responsible for oxidative protein folding. ERp57 is an ER resident thiol disulfide oxidoreductase while Erp72 is a disulfide isomerase. All these proteins participate in the protein folding machinery of the ER.
as §2
Mice survival/mortality in different treatment groups was analyzed by Kaplan-Meier as a function of radiation dose using Sigma-Plot and GraphPad Prism (version 4.0 for OS X, San Diego, CA, USA) software.

In another series the test system is CHOP transcript. Description: Real Time-PCR analysis of CHOP mRNA in tumors. Format: in vivo, mouse. As to conditions: RM1 tumors. From the text: Although phosphorylated eIF2α decreases the translation of most cellular proteins, including pro-survival and anti-apoptotic proteins, it increases the translation of a transcription factor, ATF4 that is responsible for inducing the transcription of pro-apoptotic genes, such as, CCAAT/enhancer-binding protein homologous protein (CHOP), thereby preparing the cell for programmed cell death in case the misfolded proteins are not repaired and ER stress persists.
Real Time PCR analysis of UPR target genes 24 hr after LOFU treatment the RM1 tumor cells were lysed using RLT buffer mixed with 1% betamercaptoethanol from RNeasy Mini Kit (Qiagen, Valencia, CA, USA).
Qiagen's protocol for the RNeasy Mini Kit with on-column DNA digestion was used to isolate RNA from the tumor lysates. The RNA samples were stored at −80° C., prior to further use. Isolated RNA was subjected to cDNA synthesis using the SuperScript™ First-Strand Synthesis System (Invitrogen, Grand Island, NY, USA). The splicing of XBP1 RNA was detected using the following primer pair 5′-[…]-3′ (SEQ ID NO:19) and 5′-[…]-3′ (SEQ ID NO:20) (Fisher Scientific, Pittsburgh, PA, USA). […]
Primers used for real time PCR included GRP78 5′[…]3′ (SEQ ID NO:21) and 5′[…]3′ (SEQ ID NO:22); EDEM 5′ […] […] Data was analyzed by web based PCR array data analysis software from SA Biosciences.

Results on one molecule are retold here after patent publication US12011619B2, “Low intensity focused ultrasound for treating cancer and metastasis” (priority 2015, dated 2024).

Take `C=CCNC1=C2C[C@@H](C)C[C@H](OC)[C@H](O)[C@@H](C)/C=C(\C)[C@H](OC(N)=O)[C@@H](OC)/C=C\C=C(/C)C(=O)NC(=CC1=O)C2=O` [17AAG, 17-N-allylamino-17-demethoxygeldanamycinan]: the tumor volume in series [1] (17AAG 50 mg/kg b.w. i.p. three times a week, C57Bl/6 mice) was 964 mm^3; in series [1] (17AAG 75 mg/kg b.w. i.p. three times a week, C57Bl/6 mice), 485±24.25 mm^3. Further, the “interval within which all the animals achieved tumor size 2000 mm^3” value in series [1] (RM1 tumors, 17AAG 25 mg/kg alone) was in the range of 26 to 30 days. Besides, the “average estimated tumor growth slower compared to control group” value in series [1] (RM1 tumors, 17AAG 25 mg/kg, C57Bl/6 mice) was 9%. Moreover, the “death of mice (Kaplan Meier survival analysis)” value in series [2] (75 mg/kg of body weight, after 21 days of treatment, C57Bl/6 mice) is listed as 50%. Besides, the “low dose found to be nontoxic” value in series [2] (Balb/c nude mice) is listed as 14 mg/kg; in series [2] (C57Bl/6 mice) it was 25 mg/kg. The “normal tissue toxic effect” value in series [2] (low dose 17AAG 25 mg/kg body weight, C57Bl/6 mice) is given as “did not show any normal tissue toxic effect”. Also, the “CHOP transcript levels, induction compared to untreated controls” value with CHOP transcript was determined as 14.8±2 fold.
